Laboratory results taken from BigSolDB 2.1.

COc1cccc(C(=O)O)c1OC
solubility (mole fraction)
Conditions | 278.15 K | 283.15 K | 288.15 K | 293.15 K | 298.15 K | 303.15 K | 308.15 K | 313.15 K | 318.15 K | 323.15 K
in 1,4-dioxane | – | – | 0.0585 | 0.069 | 0.0805 | 0.0934 | 0.11 | 0.127 | 0.148 | –
in 2-ethoxyethanol | 0.0418 | 0.0485 | 0.0552 | 0.0644 | 0.0733 | 0.084 | 0.0974 | 0.109 | 0.128 | 0.146
in acetonitrile | 0.0108 | 0.0133 | 0.0167 | 0.0204 | 0.0254 | 0.0309 | 0.0385 | 0.0474 | 0.059 | 0.0734
in ethanol | 0.0131 | 0.0165 | 0.0202 | 0.0252 | 0.0304 | 0.0384 | 0.0466 | 0.0592 | 0.0714 | 0.0884
in ethyl acetate | 0.0133 | 0.0159 | 0.0189 | 0.023 | 0.0271 | 0.0332 | 0.0391 | 0.0464 | 0.057 | 0.0685
in ethylene glycol | 0.0468 | 0.0529 | 0.0616 | 0.0708 | 0.0801 | 0.092 | 0.104 | 0.12 | 0.137 | 0.154
in isopropanol | 0.00832 | 0.0106 | 0.0138 | 0.0175 | 0.0233 | 0.0291 | 0.0384 | 0.0482 | 0.0632 | 0.0791
in isopropyl acetate | 0.00953 | 0.0111 | 0.0137 | 0.0162 | 0.0198 | 0.0237 | 0.029 | 0.0339 | 0.0425 | 0.0499
in methanol | 0.0151 | 0.0192 | 0.0229 | 0.0288 | 0.0348 | 0.0446 | 0.0535 | 0.0682 | 0.0838 | 0.101
in methyl acetate | 0.0166 | 0.0197 | 0.0236 | 0.0282 | 0.034 | 0.041 | 0.0494 | 0.0589 | 0.0719 | 0.0862
in n-butanol | 0.00922 | 0.0116 | 0.0144 | 0.0183 | 0.0219 | 0.0284 | 0.0362 | 0.0449 | 0.0562 | 0.0716
in n-butyl acetate | 0.00923 | 0.0111 | 0.0134 | 0.016 | 0.0195 | 0.0234 | 0.0286 | 0.0342 | 0.0428 | 0.0506
in n-propanol | 0.00925 | 0.0122 | 0.0151 | 0.0197 | 0.0243 | 0.0316 | 0.0386 | 0.05 | 0.0618 | 0.0793
in n-propyl acetate | 0.0106 | 0.0133 | 0.0154 | 0.0193 | 0.0224 | 0.0279 | 0.0326 | 0.0403 | 0.0468 | 0.0583
in water | 4.79e-05 | 6.1e-05 | 7.77e-05 | 0.0001 | 0.000125 | 0.000162 | 0.000202 | 0.00026 | 0.000323 | 0.000399
